Read-outs that look alike come from different tables or passages of the source.
Assays:
M1 mAChR = target: T1, M1 mAChR (Rattus norvegicus, UniProt P08482); assay: α-APPs secretion in cell cultures stably transfected with M1 mAChR; format: cell-based; conditions: for α-APPs secretion (% of max CCh): maximal response vs 10^−4 M carbachol
T1 construct: expressed in transfected cells
T1 sequence (P08482 1-460): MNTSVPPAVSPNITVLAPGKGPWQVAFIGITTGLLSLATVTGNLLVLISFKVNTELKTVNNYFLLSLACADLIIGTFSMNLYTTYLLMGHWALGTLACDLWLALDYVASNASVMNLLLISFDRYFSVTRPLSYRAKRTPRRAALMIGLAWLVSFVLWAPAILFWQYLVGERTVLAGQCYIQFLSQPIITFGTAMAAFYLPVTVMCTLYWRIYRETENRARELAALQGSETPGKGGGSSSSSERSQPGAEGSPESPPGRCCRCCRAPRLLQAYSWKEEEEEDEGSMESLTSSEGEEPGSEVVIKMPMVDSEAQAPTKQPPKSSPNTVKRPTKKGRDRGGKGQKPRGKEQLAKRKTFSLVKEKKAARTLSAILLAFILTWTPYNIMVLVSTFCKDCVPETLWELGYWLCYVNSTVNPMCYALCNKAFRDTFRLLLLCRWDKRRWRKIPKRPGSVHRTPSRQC
Procedure: Cells were plated in 6 well culture plates and used at the age of 3-5 days after plating. […] Cells exposed to medium alone are referred as controls.
Cell supernatants were collected into Eppendorff tubes containing a cocktail of protease intubitors (5 units/ml aprotinin, […], 5 mg/ml leupeptin and 10^−4 M Phenylmethylsulfonylfluoride (PMSF, a protease inhibitor); Sigma, USA). The collected media were concentrated with Centricon tubes (Amicon, Beverly, Mass., USA) and kept frozen for α-APPs secretion determination. Equal amounts of protein (50-100 μg) were loaded and separated on 10% sodium dodecyl sulfate-polyacrylamide gel electrophoresis (SDS-PAGE) Followed by western blotting onto nitrocellulose membrane, blocked by fat-free milk, and probed for 24 hours at 4° C., with anti-Alzheimer's precursor protein, A4 monoclonal antibody 22C11 (0.25 μg/ml; Boehringer Mannheim, Germany). The nitrocellulose membranes were washed and incubated for 2 hours at room temperature with peroxidase-linked goat anti-mouse IgG antibodies (Jackson Immunoresearch, USA), followed by extensive washout and staining with enhanced chemiluminescence detection system (Amersham). Quantitative evaluation of the immunoreactive bands, on the exposed films, was performed by video-imaging densitometry (Gel-aid software; Galai Co., Israel). APPs levels were expressed as x-fold increase over basal levels.

APPs secretion = APPs secretion in rat primary hippocampal, cortical and spinal cord cultures; format: cell-based; conditions: 100 μM, 1 h
[1] = tested on: rat pheochromocytoma cells transfected with M1 mAChR; assay: Neurite outgrowth in rat pheochromocytoma cells transfected with M1 mAChR; format: cell-based; conditions: 24 hrs, without neurotrophins
Procedure: For determination of neurite outgrowth, cells plated in six-well plates were used 3-5 days after plating. Growth factors were added 1 day after plating and muscarinic agonists were added for the last 24 hrs.
Cells were observed under an inverted microscope. The percent of cells with neurite longer than cell diameter were scored in three random fields of several hundred cells from each well. Results were expressed as a percent of cells with neurites. Treatments were performed in triplicate cells. Both NGF (50 ng/ml) and EGF (100 ng/ml) were added 1 day after plating. Muscarinic agonists were added 24 hours before scoring.

tau [2] = assay: tau-1 immunoreactivity in primary cell cultures (western blot); format: cell-based, rat; conditions: cortical and hippocampal cultures, 1-100 μM
Procedure: Primary cell cultures were grown as described in EXAMPLE 38. Cell supernatants were removed and the cells were washed once in medium prior to the addition of cold phosphate buffre saline ph=7.4 (PBS) solution containing 0.2 mM EDTA. Cells were scraped using a rubber policeman, transferred to Eppendorf tubes, and centrifuged at 4° C. Cell pellets were resuspended in lysis buffer (EDTA 5 mM, Tris 50 mM, Triton 1%, NaCl 150 mM) containing protease inhibitors (5 units/ml apronitin, […] and 0.1 mM PMSF, Sigma) and subjected to centrifugation at 4° C. Supernatants were transferred into Eppendorf tubes and kept at −20° C. till analyzed. The extent of tau-1 immunoreactivity (an antibody that recognizes a non-phosphorylated tau at Ser^199) was determined by western blots.

[3] = Pharmacokinetic study in rats; format: in vivo, rat; conditions: for bioavailability: rat, plasma, Rats, po, read-out: Bioavailability (% F)
Source text: The results of the PK profile of AF292 in rats and Beagle dogs (overnight fasting; drug administered in water solution; gavage) are listed in Table 1.

[4] = mouse, in vivo
[5] = tested on: rat pheochromocytoma cells transfected with the M1 mAChR
[6] = tested on: cortical and hippocampal cell culture; assay: Protection against NMDA-induced cell death in primary rat brain cultures; conditions: for neuroprotective potency against 200 μM NMDA, compared with 20 μM MK801: 100 μM agonist; for prevention of NMDA-induced cell death: 20-24 hrs
tau [7] = assay: Tau phosphorylation, AT8 immunoblot; format: cell-based; conditions: 100 μM; to the control level
Source text: Following the experimental design of Sadot et al., J.Neurochem. […] By linking an M1 agonist to an antioxidant moiety tau phophorylation may be decreased, providing a new therapeutic strategy in a variety of CNS disease states due to combined damage due to oxidative stress and tau hyperphosphorylation.

[8] = Passive avoidance in trihexyphenidyl treated rats; format: in vivo, rat; conditions: for Trihexyphenidyl-rats-Passive avoidance, effect: AF292 0.03, 0.05, 0.1, 0.3, 0.5 mg/kg p.o., AF267B 0.5, 1, 5; for Trihexyphenidyl-rats-Passive avoidance, MED: p.o.
Source text: Trihexyphenidyl is a selective M1 muscarinic antagonist that crosses the blood brain barrier and induces memory and learning impairments (Bymaster et al. J Pharmacol Exp Ther 267: 16-24, 1993. Roldan et al Neurosci. Lett. 230: 93-96, 1997; Kimura et al Brain Res. 834: 6-12, 1999).
Naive Wistar rats were used in the experiments below. The passive avoidance (PA) task is comprised of training (acquisition) phase and a retention phase. In the training procedure each rat was individually placed in the small illuminated compartment and after 60 sec. of familiarization/adaptation, the door to the large compartment was opened and the latency to enter was measured (Initial Latency). Immediately following entry into the dark compartment, the door was closed and inescapable foot shock (0.6 mA for 3 sec) was delivered through the grid floor. A cutoff point of 180 sec was used for initial latency. […] After the acquisition trial the rat was returned to its home cage. Retention of the passive avoidance task was measured 24 h later, by again placing the rat in the light compartment and after a 60 sec adaptation interval, the door was opened and the latency to renter the dark compartment was measured. A cutoff point of 300 sec was used for retention latency.

[9] = CNS safety, general observation and Irwin test in rats; format: in vivo, rat
Procedure: AF292 was evaluated in rodents for possible effects on general behavior and other […] related pharmacological effects.

Structure (SMILES)	α-APPs secretion (% of max CCh) (M1 mAChR) [%]	APPs secretion, fold over control (APPs secretion) [fold]	Maximal neurite outgrowth response (percent of cells with neurites) [1] [%]	tau-1 immunoreactivity (non-phosphorylated tau) (tau [2])	biovailability in rats [3] [%]	Tmax / peak in brain [4] [min]	H2O2-induced toxicity [5]	cell death induced by β-A25-35 (MTT) [5]	neuroprotective potency against 200 μM NMDA, compared with 20 μM MK801 [6]	prevention of NMDA-induced cell death [6]	α-APPs secretion, comparison in words (M1 mAChR)	phosphorylated tau (AT8) (tau [7])	Trihexyphenidyl-rats-Passive avoidance, effect [8]	Trihexyphenidyl-rats-Passive avoidance, MED [8]	also measured
CC1=NCC2(CCN(C)CC2)S1 [AF150(S), 2,8-Dimethyl-1-thia-3,8-diaza-spiro[4.5]dec-2-ene]	50	2.8	30	effective in elevating tau immunoreactivity	31	1 to 10	protect the cells	significantly attenuated	slightly less	effective in prevention of cell death	–	–	–	–	brain penetration time ([4]; iv): 1 min
CC[C@@H]1SC2(CCN(C)CC2)NC1=O [AF267B, (S)-2-ethyl-8-methyl-1-thia-4,8-diaza-spiro[4.5]decan-3-one]	–	2.8	60	effective in elevating tau immunoreactivity	–	20 to 30	protect the cells	significantly attenuated	slightly less	effective in prevention of cell death	more efficacious and more potent than its racemate	induce dephosphorylation of tau proteins	0.5, 1, 5 positive effects	MED 0.1-0.5 mg/kg, p.o.	α-APPs secretion, fold increase over control (M1 mAChR; 10^−4 M, 1 hour): about 6 fold; IRWIN TEST, duration of signs ([9]; rat, 100 mg/kg, p.o.): duration 3-6 hrs.).; IRWIN TEST, onset of signs ([9]; rat, 100 mg/kg, p.o.): reduced startle response (onset: 0.5 hr;; IRWIN TEST, signs (carriage, apathy, corneal reflex, diarrhea, grooming, urination, salivation, lacrimation, locomotor activity, respiration, startle) ([9]; rat, 100 mg/kg, p.o.): 100 mg/kg: abnormalities of carriage,; IRWIN TEST ([9]; rat, 1 & 10 mg/kg, p.o.): 1 & 10 no effect on gross behavior; General Observation: Chromodacryorrhea, dose ([9]; rat, p.o.): Chromodacryorrhea: 100 mg/kg, p.o.; General Observation: Convulsion, dose ([9]; rat, p.o.): Convulsion: 50 mg/kg, p.o.; General Observation: Gnawing, dose ([9]; rat, p.o.): Gnawing; 50 mg/kg, p.o.; General Observation: Hypothermia, dose ([9]; rat, p.o.): Hypothermia: 50 mg/kg, p.o.; General Observation: Lacrimation, dose ([9]; rat, p.o.): Lacrimation: 50 mg/kg, p.o.; General Observation: Mydriasis, dose ([9]; rat, p.o.): Mydriasis: 25 mg/kg, p.o.; General Observation: Salivation, dose ([9]; rat, p.o.): Salivation: 40 mg/kg, p.o.; General Observation: Sedation, dose ([9]; rat, p.o.): Sedation: 100 mg/kg, p.o.; dose at which effects begin (salivation and lacrimation) ([9]; rats, po, first hour): about 40 mg/kg; bioavailability ([3]; calculated for 2 mg/kg): 30%; time after dosing detected in the brain [4]: 2 to 240 min
CC[C@@H]1SC2(CCNCC2)NC1=O [AF292, (S)-2-Ethyl-1-thia-4,8-diaza-spiro[4.5]decan-3-one]	100	–	–	–	49	–	protect the cells	significantly attenuated	–	–	Equipotent with AF267B	induce dephosphorylation of tau proteins	positive effects	≤ 0.03 mg/kg	Trihexyphenidyl-rats-Passive avoidance, duration ([8]; rat, in vivo): LONG DURATION OF ACTION; potency among the tested agonists ([8]; rat, in vivo): most potent compound among the tested agonists; physical or behavioral signs ([9]; rats, 1, 10, 30, 60, or 100 mg/kg orally): No significant physical or behavioral signs; bioavailability ([3]; 10 mg/kg, p.o.): 49%; MTT assay against Aβ 25-35 & H2O2 in cell cultures transfected with rat M1 mAChR [5]: Equipotent with AF267B & CCh at 100
